{"source": "patent US20200362305A1", "about": "“EFFICIENT INFECTION OF PRIMARY KER[…] HPV16” (Board of Supervisors of Louisiana State University and …, priority 2018, published 2020)", "test_system": "HPV16", "test": "HPV16 infection of primary keratinocytes by ECM-to-cell transfer, cells grown with or without Y-27632", "format": "cell-based, human", "conditions": "primary cells grown in the presence or absence of the Rho kinase inhibitor Y-27632", "method": "Human embryonic kidney 293TT and HeLa cells were obtained from John Schiller and Daniel DiMaio, respectively. They were cultured in DMEM supplemented with 10% FBS, non-essential amino acids, antibiotics, and L-Glutamax. Spontaneously immortalized human keratinocytes HaCaT cells were purchased from the American Type Culture Collection (ATCC) and grown in low glucose DMEM containing 5% FBS and antibiotics. Human foreskin keratinocytes (HFKs) were derived from neonatal human foreskin epithelia and maintained in E medium containing mouse epidermal growth factor (EGF) and mitomycin-treated mouse 3T3 J2 fibroblasts. Pooled primary epithelial keratinocytes were also purchased from the ATCC (PCS-200-010) and used in some experiments. In early experiments where indicated, the inventors maintained and infected primary keratinocytes in the presence of the Rho kinase inhibitor (ROCK) Y-27632, which was reported to increase their lifespan. However, the ROCK inhibitor was excluded prior and during experiments involving long term culturing of infected primary cells. Stable cell lines containing HPV16 episomes were created by co-transfection of pEGFP-N1-HPV16 containing the HPV16 genome (W12 strain) with an expression vector for Cre recombinase and a Neomycin resistance plasmid. […]", "data": [{"smiles": "C[C@@H](N)[C@H]1CC[C@H](C(=O)Nc2ccncc2)CC1", "note": "[Y-27632]", "values": [{"measurement": "infection efficiency", "value": "no significant difference"}]}]}
